From article PMC11988775, “Glycyl-tRNA Synthetase as a Target for Antiviral Drug Screening Against Influenza Virus” (International Journal of Molecular Sciences, 2025)
Read-outs that look alike come from different tables or passages of the source.

How the values were obtained:
GlyRS [1] = molecular target: T1, GlyRS (Homo sapiens, UniProt P41250); assay: Enzyme inhibition assay (ATP consumption assay); format: biochemical; conditions: for IC50: ATP consumption assay, mean ± SD
T1 construct: made in house; host or cells: E. coli BL21(DE3)
T1 sequence (P41250 37-739): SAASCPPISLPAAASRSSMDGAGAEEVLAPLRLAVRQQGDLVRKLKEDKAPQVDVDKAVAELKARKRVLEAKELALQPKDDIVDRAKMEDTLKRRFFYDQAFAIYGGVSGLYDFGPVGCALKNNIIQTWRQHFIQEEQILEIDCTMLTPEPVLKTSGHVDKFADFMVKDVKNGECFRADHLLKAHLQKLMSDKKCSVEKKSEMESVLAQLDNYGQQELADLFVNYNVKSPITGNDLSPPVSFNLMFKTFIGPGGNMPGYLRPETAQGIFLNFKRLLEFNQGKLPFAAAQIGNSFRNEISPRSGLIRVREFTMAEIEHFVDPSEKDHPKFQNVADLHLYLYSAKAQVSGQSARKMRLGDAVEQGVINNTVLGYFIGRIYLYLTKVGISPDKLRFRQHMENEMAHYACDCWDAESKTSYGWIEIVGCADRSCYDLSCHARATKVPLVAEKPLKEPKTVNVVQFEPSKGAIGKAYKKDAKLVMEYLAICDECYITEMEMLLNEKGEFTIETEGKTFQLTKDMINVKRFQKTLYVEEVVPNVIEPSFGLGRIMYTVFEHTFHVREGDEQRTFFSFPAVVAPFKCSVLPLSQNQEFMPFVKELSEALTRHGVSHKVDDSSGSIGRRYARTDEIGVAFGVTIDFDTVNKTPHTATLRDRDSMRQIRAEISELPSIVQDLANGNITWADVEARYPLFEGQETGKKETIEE
Protocol: The ATP consumption assay was utilized to assess the enzymatic inhibitory activity of the compounds. The 30 μL reaction mixture consisted of 1 μM GlyRS, 25 μM ATP, 50 μM L-Glycine, 30 mM HEPES pH 7.5, 150 mM NaCl, 30 mM KCl, 40 mM MgCl2, and 0.1% bovine serum albumin (BSA), along with the corresponding concentrations of each compound. The reaction mixture was incubated at room temperature for 15 min. After incubation, 10 μL of the reaction reagent was transferred to a 384-well microplate, and the GlyRS enzyme activity was detected by adding 10 μL of the ATP Assay Kit (#S0026, Beyotime, Shanghai, China). Luminescence measurements were performed using a Synergy HTX multimode microplate Reader (BioTek Inc., Winooski, VT, USA). […]

GlyRS [2] = molecular target: T1, GlyRS; assay: Fluorescence-based thermal shift assay (TSA); format: binding; conditions: shift between Tm of GlyRS with and without compound
Protocol: Thermal shift assays were conducted using a StepOnePlus 7 Flex Real-Time Cycler (Applied Biosystems, Waltham, MA, USA). The Protein Thermal Shift™ Kit dye from Thermo Fisher Scientific was employed to monitor the thermal stability of the protein by binding to its exposed hydrophobic regions. In each well of a 96-well Optical Reaction Plate (Applied Biosystems), a solution containing 14 μL of protein thermal shift buffer, 2 μL of diluted thermal shift dye (8×), 2 μL small molecule solution at 1 mM, and 2 μL of protein at 1 mg/mL was added. The 96-well polymerase chain reaction plates were then placed in the Life Technologies system and incubated at 25 °C for 10 min. Subsequently, the samples were gradually heated from 25 °C to 95 °C at a rate of 1 °C/min. During the thermal denaturation of the protein, the fluorescence signal of SYPRO orange at 490/530 nm excitation/emission wavelengths was recorded by the instrument at 30 s intervals. The fluorescence signal was continuously monitored and plotted against the temperature, with the midpoint of the protein unfolding transition defined as the melting temperature (Tm). To ensure accuracy, triplicate experiments were performed. The ΔTm represents the shift in Tm value between the GlyRS treated with compounds and the blank control.

GlyRS [3] = molecular target: T1, GlyRS; assay: Bio-layer interferometry (BLI) binding assay; conditions: for Kdis / Kon: immobilized GlyRS
Protocol: Binding experiments on the GlyRS proteins with various molecules were conducted using an Octet R8 system (ForteBio, Fremont, CA, USA). Purified His-tagged GlyRS proteins (500 μg/mL) were captured using Ni-NTA biosensors (ForteBio, Fremont, CA, USA), resulting in a saturation response of 4–5 nm after 300 s. Subsequently, the biosensors were immersed in diluted molecules (0.625–20 μM in assay buffer) for 120 s to measure the association signal, followed by transfer into Octet buffer to measure the dissociation signal for 100 s. Reference wells containing buffer instead of the tested compounds were included to correct for baseline shifts. A parallel set of Ni-NTA sensors immersed only in buffer served as negative reference controls to correct for nonspecific binding of the compounds to the biosensor surface. The signals were analyzed by a double reference subtraction protocol to deduce nonspecific and background signals and signal drifts caused by biosensor variability. All assays were performed by a standard protocol in 96-well black plates with a total volume of 200 μL/well at 30 °C. The generated data were analyzed using the Octet® Analysis Studio 12.2.2.26 for correction and curve fitting.

GlyRS [4] = molecular target: T1, GlyRS; assay: Limited proteolysis analysis (trypsin, SDS-PAGE); conditions: trypsin at different concentrations, 1 h at 37 °C, versus unbound GlyRS
in vitro = format: cell-based; conditions: human
Protocol: We then evaluated the antiviral effects of Lycobetaine and Scutellarein. To determine the optimal concentration of the small molecules, we used the CCK-8 assay to evaluate cell viability and estimate the CC50 value of the two drugs in A549 cells. In this experiment, the cells were exposed to varying concentrations of Lycobetaine and Scutellarein, and the CCK-8 reagent was added 24 h after drug treatment.

[5] = tested on: A/PuertoRico/8/34 (H1N1) (PR8 virus); format: cell-based, Influenza A virus
[6] = 1 μM GlyRS at 20 μM compounds, average of two independent experiments
[7] = BLI, immobilized His-tagged GlyRS, mean ± SD, three repeats, read-out: KD

Compound: CC(C)c1cc2c(c(O)c1O)[C@@]1(C(=O)O)CCCC(C)(C)[C@@H]1CC2 [Carnosic acid]
- Relative Enzyme Activity (GlyRS [1]; [6]): 75.4%
- △Tm (GlyRS [2]): −5.9 °C
- Kd (GlyRS [3]): 14.5 ± 0.19 µM
- Kdis (GlyRS [3]; BLI): 1.12 ± 0.17 (1/s) × 10^−2
- Kon (GlyRS [3]; BLI): 1.13 ± 0.26 (1/MS) × 10^3

Compound: Cc1ccc(S(=O)(=O)NCl)cc1 [Chloramine-T]
- Relative Enzyme Activity (GlyRS [1]; [6]): 86.9%
- △Tm (GlyRS [2]): −5.13 °C
- Kd (GlyRS [3]): 15.1 ± 1.8 µM
- Kdis (GlyRS [3]; BLI): 78.19 ± 17.95 (1/s) × 10^−2
- Kon (GlyRS [3]; BLI): 52.28 ± 13.31 (1/MS) × 10^3

Compound: Oc1c(I)cc(I)c2cccnc12 [Iodoquinol, reference compound]
- Relative Enzyme Activity (GlyRS [1]; Figure 5K, bars A-J correspond to the compounds of panels A-J): 72.0%
- △Tm (GlyRS [2]): −11.97 °C
- Kdis (GlyRS [3]; BLI): 2.23 ± 0.49 (1/s) × 10^−2
- Kon (GlyRS [3]; BLI): 3.10 ± 0.51 (1/MS) × 10^3
- Kd (GlyRS [3]; [7]): 7.14 ± 0.41 µM

Compound: Cc1c(OCC(F)(F)F)ccnc1C[S+]([O-])c1nc2ccccc2[nH]1 (centres unmarked) [Lansoprazole, reference compound]
- Relative Enzyme Activity (GlyRS [1]; [6]): 72.3%
- △Tm (GlyRS [2]): −5.03 °C
- Kdis (GlyRS [3]; BLI): 9.25 ± 3.64 (1/s) × 10^−2
- Kon (GlyRS [3]; BLI): 7.23 ± 2.14 (1/MS) × 10^3
- Kd (GlyRS [3]; [7]): 12.5 ± 1.63 µM

Compound: Oc1cc2c3c(c1)c1cc4c(cc1c[n+]3CC2)OCO4 [Lycobetaine]
- protein conformation change of GlyRS (distribution of proteolyzed fragments) (GlyRS [4]): alters the protein conformation of GlyRS
- CC50 at 24 h (in vitro): 16 ± 0.58 µM
- Relative Enzyme Activity (GlyRS [1]; [6]): 8.0%
- IC50 (GlyRS [1]): 0.11 ± 0.05 µM
- viral infection rate / viral titer [5]: effectively reduced the viral infection rate
- △Tm (GlyRS [2]): −13.01 °C
- Kdis (GlyRS [3]; BLI): 39.73 ± 11.18 (1/s) × 10^−2
- Kd (GlyRS [3]; [7]): 43.5 ± 16.4 µM

Compound: C[C@@H]1C[C@H]2[C@@H]3CCC4=CC(=O)C=C[C@]4(C)[C@@]3(Cl)[C@@H](O)C[C@]2(C)[C@@]1(OC(=O)c1ccco1)C(=O)CCl [Mometasone furoate, reference compound]
- Relative Enzyme Activity (GlyRS [1]; [6]): 91.2%
- △Tm (GlyRS [2]): −11.58 °C
- Kon (GlyRS [3]; BLI): 108.8 ± 67.42 (1/MS) × 10^3
- Kd (GlyRS [3]; [7]): 1.82 ± 0.36 µM

Compound: CC(=O)N[C@@H](C)C(=O)O [N-Acetyl-L-alanine]
- Relative Enzyme Activity (GlyRS [1]; [6]): 88.1%
- △Tm (GlyRS [2]): 5.96 °C
- Kdis (GlyRS [3]; BLI): 560 ± 194 (1/s) × 10^−2
- Kon (GlyRS [3]; BLI): 396.20 ± 85.48 (1/MS) × 10^3
- Kd (GlyRS [3]; [7]): 24.9 ± 4.33 µM

Compound: COC(=O)C1=C(C)NC(C)=C(C(=O)OCC(C)C)C1c1ccccc1[N+](=O)[O-] (centres unmarked) [Nisoldipine, reference compound]
- Relative Enzyme Activity (GlyRS [1]; [6]): 67.3%
- △Tm (GlyRS [2]): −8.96 °C
- Kdis (GlyRS [3]; BLI): 400 ± 94.49 (1/s) × 10^−2
- Kon (GlyRS [3]; BLI): 86.16 ± 27.50 (1/MS) × 10^3
- Kd (GlyRS [3]; [7]): 47.7 ± 7.18 µM

Compound: O=c1cc(-c2ccc(O)cc2)oc2cc(O)c(O)c(O)c12 [Scutellarein]
- protein conformation change of GlyRS (distribution of proteolyzed fragments) (GlyRS [4]): did not show significant differences compared to unbounded GlyRS
- CC50 at 24 h (in vitro): 29.4 ± 0.76 µM
- Relative Enzyme Activity (GlyRS [1]; [6]): 27.3%
- IC50 (GlyRS [1]): 2.22 ± 0.19 µM
- viral infection rate / viral titer [5]: effectively reduced the viral infection rate
- △Tm (GlyRS [2]): −5.3 °C
- Kdis (GlyRS [3]; BLI): 1.09 ± 0.11 (1/s) × 10^−2
- Kon (GlyRS [3]; BLI): 3.96 ± 1.05 (1/MS) × 10^3
- Kd (GlyRS [3]; BLI, mean ± SD, three repeats (Table 2), read-out: KD): 2.88 ± 0.83 µM

Compound: COC[C@H]1C[C@@H](c2nc(-c3ccc4c(c3)COc3cc5c(ccc6nc([C@@H]7CC[C@H](C)N7C(=O)[C@@H](NC(=O)OC)C(C)C)[nH]c65)cc3-4)c[nH]2)N(C(=O)[C@H](NC(=O)OC)c2ccccc2)C1 [Velpatasvir, reference compound]
- Relative Enzyme Activity (GlyRS [1]; [6]): 78.5%
- △Tm (GlyRS [2]): −5.4 °C
- Kdis (GlyRS [3]; BLI): 18.46 ± 0.98 (1/s) × 10^−2
- Kon (GlyRS [3]; BLI): 15.80 ± 0.71 (1/MS) × 10^3
- Kd (GlyRS [3]; [7]): 11.7 ± 1.13 µM
